Entries after “also recorded” stand apart in the source; their conditions may differ.
What was measured:
H929-1051 cells = assay: Cell apoptosis assay (Caspase-3 live cell imaging); format: cell-based, human
Source text: FIG. 1A and FIG. 1B. (FIG. 1A) Change in apoptosis induction, as measured by area under the curve of Caspase 3 fold induction (aka apoptosis index) over time in lenalidomide resistant H929-1051 cells. Abscissa: log nM (compound), ordinate: apoptosis index. The lines of best fit are a 3-parameter logistic equation calculated in GraphPad Prism. (FIG. 1B) The area under the curve of the concentration-response curves for Compound 1 and Compound A in H929-1051 cells were used to compare the compounds' ability to induce apoptosis after a 6 h exposure and then dilution resulting in about a 20-fold reduction of compound concentration.
Cell Apoptosis Assays: The ability of the compounds to induce apoptosis was assessed in selected MM cell lines at the time points and compound concentrations indicated. As a marker of apoptosis, the level of Caspase-3 activity was measured in MM cells using live cell imaging. To image suspension cells, 96-well plates were coated with fibronectin so cells would adhere and lie flat on the bottom of the plate. Cells were added to 96-well plates using a Multidrop Combi Reagent Dispenser (Thermo Scientific, Waltham, MA) the night before compound addition. […] Cleavage of the Caspase-3 enzyme substrate and cellular confluence in each well was detected via imaging at 10× on the IncuCyte ZOOM System every 4-6 h for 5 days. […]
Compound 1 Induced Apoptosis in Multiple Myeloma Cell Lines. […] To determine the ability of compounds to induce apoptosis and to characterize kinetically the onset of this process, Caspase-3 induction was measured over time in lenalidomide-resistant, H929-1051 cells (FIG. 1A and FIG. 1B). H929-1051 cells were incubated with the compounds at concentrations of 1 nM, 10 nM, 100 nM and 1000 nM and apoptosis was assessed over time. […] Next, the area under the curve (AUC) was calculated for each concentration and used to generate the concentration-response curves for each compound. This provided quantitative evidence of the ability of Compound 1 to induce apoptosis in H929-1051.

in vivo = details: male, CD-IGS, rat, po
Method: 7-Day Exploratory Toxicology Studies in Male Rats. Methods. Male CD-IGS rats (n=5/group for toxicologic assessment; n=4/group for toxicokinetic assessment) were dosed once daily by oral gavage (10 mL/kg) with vehicle (0.5% HPMC/0.25% Tween-80 in 50 mM citrate, pH 2.6-2.8) or test articles (Compound A or Compound 1) at 100, 300 or 1000 mg/kg/day for 7 consecutive days. Blood samples for toxicokinetics were collected on Days 1 and 7. […] Body weight was recorded at randomization, prior to dosing on Days 1-7 and prior to necropsy. Samples for hematology and serum chemistry analyses were collected on Day 8, approximately 24 h after the last dose. Rats were euthanized on Day 8 for necropsy. Anatomic pathology evaluation consisted of gross observation, organ weight and histopathologic examination of select tissues.

[1] = system: neutrophil progenitors (bone marrow CD34+ cells from healthy donors); assay: Ex vivo maturation of myeloid progenitors to adult neutrophils
Method: Methods: Ex vivo cultures of bone marrow (BM) CD34^+ cells from healthy donors (HD) were used to investigate neutrophil-specific ex vivo maturation. In vitro differentiation of neutrophil progenitors was induced by adding stem cell factor (SCF), fins-related tyrosine kinase 3 ligand (Flt3-L), and granulocyte colony stimulating factor (G-CSF) to culture media. Cell differentiation was evaluated by flow cytometry as the percentage of cells in 5 subpopulations: hematopoietic stem cells (HSC, CD34^+/CD33^−/CD11b^−) and Stage I (CD34^+/CD33^+/CD11b^−), Stage II (CD34^−/CD33^+/CD11b^−), Stage III (CD34^−/CD33^+/CD11b^+), and Stage IV (CD34^−/CD33^−/CD11b^+) (from immature to mature), as shown in FIG. 7. The effects of Compound 2 on maturation of neutrophil progenitors were assessed and different dosing schedules were evaluated to gain insight into the schedule dependence of these events.
Longer Daily Compound 2 Exposures. To further characterize the potential impacts of different schedules on arrest of neutrophil progenitor maturation and subsequent recovery, changes in the relative proportions of each of the aforementioned stages of myeloid progenitor […] CD34^+ BM cells derived from healthy donors were exposed to Compound 2 on 3 or 5 consecutive days starting on Day 10 for 6 h (Donors No. 1 and 2) or for 24 h (Donors No. 3 and 4) each day. […]

[2] = system: lenalidomide-resistant NCI-H929 (H929-1051) multiple myeloma/plasmacytoma tumors; assay: H929-1051 xenograft, Compound 2 alone and with bortezomib; format: in vivo, mouse
CYP2A6 = target: T1, CYP2A6 (Homo sapiens, UniProt P11509); assay: CYP inhibition in pooled human liver microsomes; format: in vitro ADME; details: up to 30 μM
T1 construct: from tissue; host or cells: pooled human liver microsomes
Method: (§1) Methods. […] In addition, the compounds were evaluated for their potential to act as a time-dependent inhibitors at the same concentrations mentioned above. […] In addition to appropriate vehicle controls, known direct inhibitors and time-dependent inhibitors of CYP isoforms were included as positive controls. Following the incubation, concentrations of probe substrate metabolites were quantified using established LC/MS/MS methods. The extent of inhibition was expressed as the percentage of control activity.

CYP1A2 = target: T2, CYP1A2 (Homo sapiens, UniProt P05177); assay: CYP inhibition in pooled human liver microsomes; format: in vitro ADME; details: up to 30 μM
T2 construct: from tissue; host or cells: pooled human liver microsomes
Method: as §1

CYP2C8 = target: T3, CYP2C8 (Homo sapiens, UniProt P10632); assay: CYP inhibition in pooled human liver microsomes; format: in vitro ADME; details: up to 30 μM
T3 construct: from tissue; host or cells: pooled human liver microsomes
Method: as §1

CYP2D6 = target: T4, CYP2D6 (Homo sapiens, UniProt P10635); assay: CYP inhibition in pooled human liver microsomes; format: in vitro ADME; details: up to 30 μM
T4 construct: from tissue; host or cells: pooled human liver microsomes
Method: as §1

[3] = 30 minute preincubation with or without NADPH

T2 sequence (P05177 whole entry): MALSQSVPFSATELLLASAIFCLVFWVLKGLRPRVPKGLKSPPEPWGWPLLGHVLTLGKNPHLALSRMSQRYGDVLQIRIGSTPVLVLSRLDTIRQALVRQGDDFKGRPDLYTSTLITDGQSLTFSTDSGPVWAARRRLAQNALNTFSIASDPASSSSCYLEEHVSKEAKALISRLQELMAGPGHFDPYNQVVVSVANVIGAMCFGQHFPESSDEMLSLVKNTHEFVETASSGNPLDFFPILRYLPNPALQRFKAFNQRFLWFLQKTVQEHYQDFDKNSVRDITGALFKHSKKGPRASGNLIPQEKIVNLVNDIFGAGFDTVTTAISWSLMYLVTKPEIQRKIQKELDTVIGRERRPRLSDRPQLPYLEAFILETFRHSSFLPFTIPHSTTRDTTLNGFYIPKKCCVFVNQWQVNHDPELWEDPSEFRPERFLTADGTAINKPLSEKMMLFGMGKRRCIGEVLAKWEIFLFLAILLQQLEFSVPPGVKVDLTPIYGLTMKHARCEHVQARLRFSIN
T3 sequence (P10632 whole entry): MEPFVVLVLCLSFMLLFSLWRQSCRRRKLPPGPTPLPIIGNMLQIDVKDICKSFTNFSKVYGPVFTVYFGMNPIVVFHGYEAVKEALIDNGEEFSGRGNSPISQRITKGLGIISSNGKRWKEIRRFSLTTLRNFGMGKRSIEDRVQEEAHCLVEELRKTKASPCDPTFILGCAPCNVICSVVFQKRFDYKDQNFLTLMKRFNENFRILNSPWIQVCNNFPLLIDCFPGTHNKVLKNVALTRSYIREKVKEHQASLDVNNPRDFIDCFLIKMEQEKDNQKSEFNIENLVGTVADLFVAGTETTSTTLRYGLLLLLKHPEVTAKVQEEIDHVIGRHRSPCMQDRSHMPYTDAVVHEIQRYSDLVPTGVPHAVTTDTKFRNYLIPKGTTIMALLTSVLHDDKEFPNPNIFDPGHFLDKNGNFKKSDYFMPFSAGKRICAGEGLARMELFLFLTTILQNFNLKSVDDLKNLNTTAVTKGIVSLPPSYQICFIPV
T1 sequence (P11509 whole entry): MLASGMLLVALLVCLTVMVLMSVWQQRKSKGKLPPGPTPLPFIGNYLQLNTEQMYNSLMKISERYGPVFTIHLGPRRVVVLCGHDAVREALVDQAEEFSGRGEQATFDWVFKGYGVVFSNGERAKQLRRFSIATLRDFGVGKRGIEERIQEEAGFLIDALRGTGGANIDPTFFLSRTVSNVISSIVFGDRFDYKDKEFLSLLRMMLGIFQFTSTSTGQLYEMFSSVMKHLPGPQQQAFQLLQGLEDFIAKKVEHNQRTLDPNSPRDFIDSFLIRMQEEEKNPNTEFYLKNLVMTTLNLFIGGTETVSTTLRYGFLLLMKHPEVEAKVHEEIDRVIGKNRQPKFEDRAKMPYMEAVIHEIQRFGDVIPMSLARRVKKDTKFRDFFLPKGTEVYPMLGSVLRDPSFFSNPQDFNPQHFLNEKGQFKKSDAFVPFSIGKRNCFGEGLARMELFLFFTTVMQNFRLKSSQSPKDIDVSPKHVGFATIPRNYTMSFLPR
T4 sequence (P10635 whole entry): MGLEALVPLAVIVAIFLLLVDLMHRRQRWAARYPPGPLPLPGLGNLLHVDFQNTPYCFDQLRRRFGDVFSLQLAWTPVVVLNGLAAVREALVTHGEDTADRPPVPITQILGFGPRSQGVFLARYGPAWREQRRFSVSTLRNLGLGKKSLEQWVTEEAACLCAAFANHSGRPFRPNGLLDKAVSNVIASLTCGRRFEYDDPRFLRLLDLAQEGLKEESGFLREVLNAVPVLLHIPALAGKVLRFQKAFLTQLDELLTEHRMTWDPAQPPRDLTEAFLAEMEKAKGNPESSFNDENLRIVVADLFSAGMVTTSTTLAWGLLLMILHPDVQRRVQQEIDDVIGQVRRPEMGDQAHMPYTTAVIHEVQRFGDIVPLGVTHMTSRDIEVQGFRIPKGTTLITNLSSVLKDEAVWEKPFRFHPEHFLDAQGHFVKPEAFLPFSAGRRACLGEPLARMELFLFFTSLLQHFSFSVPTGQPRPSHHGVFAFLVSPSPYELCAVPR

N#Cc1ccc(N2CCN(Cc3ccc(COc4cccc5c4CN(C4CCC(=O)NC4=O)C5=O)cc3)CC2)c(F)c1 (racemic) [Compound 1, 4-(4-(4-(((2-(2,6-dioxopiperidin-3-yl)-1-oxoisoindolin-4-yl)oxy)methyl)benzyl)piperazin-1-yl)-3-fluorobenzonitrile]
time of near maximal apoptosis induction (H929-1051 cells; 1-1000 nM): ~72 h | time at which apoptosis induction begins (H929-1051 cells; 1-1000 nM, all concentrations): around 48 h | apoptotic induction (total AUC) compared to Compound A (H929-1051 cells; 6 h exposure then about 20-fold dilution, relative to Compound A): 126% | AUC(0-t) (in vivo; 100 mg/kg/day): 143 µM·h | AUC(0-t) (in vivo; 300 mg/kg/day): 514 µM·h | AUC(0-t) (in vivo; 1000 mg/kg/day): 1220 µM·h | dose at which minimal decreases in body weight gain were observed (in vivo; 7 days): ≥ 300 mg/kg

N#Cc1ccc(N2CCN(Cc3ccc(COc4cccc5c4CN([C@H]4CCC(=O)NC4=O)C5=O)cc3)CC2)c(F)c1 [Compound 2, (S)-4-(4-(4-(((2-(2,6-dioxopiperidin-3-yl)-1-oxoisoindolin-4-yl)oxy)methyl)benzyl)piperazin-1-yl)-3-fluorobenzonitrile]
loss of viability [1]: no loss of viability was observed | late-stage maturation of neutrophil progenitors ([1]; 1, 10, 100 nM, 2, 4, 6 h exposures for up to 3 consecutive days): blocked | tumor volume reduction (TVR) ([2]; Compound 2 1 mg/kg qd×3 in combination with bortezomib 1 mg/kg single dose, day 50): 98% | combination antitumor activity (fractional product method) ([2]; Compound 2 1 mg/kg with second agent 1 mg/kg): synergistic | animals that became tumor free and remained tumor free ([2]; combination of Compound 2 and bortezomib, by day 53): 7 out of 9 | tumor growth inhibition / tumor volume reduction (TVR) ([2]; single agent Compound 2 1 mg/kg qd×3 (days 31-33), day 50): 44% | day by which tumors reached approximately 2000 mm^3 ([2]; single agent, 1 mg/kg): 58 days

O=C1CC[C@H](N2Cc3c(OCc4ccc(CN5CCN(c6ccc(F)cc6F)CC5)cc4)cccc3C2=O)C(=O)N1 [Compound B]
time-dependent inhibition of CYP2A6 (CYP2A6; [3]): little to no time-dependent inhibition; also recorded: not a time-dependent inhibitor | direct inhibition of CYP2A6 (CYP2A6; human liver microsomes): up to 30% | time-dependent inhibition of CYP1A2 (CYP1A2; [3]): little to no time-dependent inhibition; also recorded: not a time-dependent inhibitor | direct inhibition of CYP1A2 (CYP1A2; human liver microsomes): up to 30% | time-dependent inhibition of CYP2C8 (CYP2C8; [3]): little to no time-dependent inhibition; also recorded: not a time-dependent inhibitor | direct inhibition of CYP2C8 (CYP2C8; human liver microsomes): up to 30% | time-dependent inhibition of CYP2D6 (CYP2D6; [3]): little to no time-dependent inhibition; also recorded: not a time-dependent inhibitor | direct inhibition of CYP2D6 (CYP2D6; human liver microsomes): up to 30%

Reference: patent US12029738B2, “Antiproliferative compounds and methods of use thereof” (Celgene Corporation, priority 2017, dated 2024)
